Reference: US10730874B2 (Shire Human Genetic Therapies, Inc., priority 2018, dated 2020)
pEC50: −log10 of the molar value.

Molecular target: human activated kallikrein enzyme (plasma kallikrein) (Homo sapiens (Human), UniProt P03952)
Assay: Inhibition of human activated plasma kallikrein, fluorogenic peptide substrate assay, 500 pM enzyme format
Format: biochemical
Conditions: 500 pM activated kallikrein enzyme, 300 uM Pro-Phe-Arg-7-amido-4-methylcoumarin substrate, 30 min preincubation, 10 min at RT; read-out: Primary Dose Response Assay: Average EC50
Summary of the method: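 Buffer 20 mM Tris pH 7.5, EDTA, NaCl, PEG-400, Triton X-100; 300 uM Pro-Phe-Arg-AMC; enzyme–inhibitor preincubation 30 min RT. Format one: 500 pM kallikrein, 10 min RT reaction; format two: 5 pM kallikrein, 18 h RT reaction. Fluorescence read at 460 nm (380 nm excitation).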

Sequence of human activated kallikrein enzyme (plasma kallikrein) (P03952 391-638): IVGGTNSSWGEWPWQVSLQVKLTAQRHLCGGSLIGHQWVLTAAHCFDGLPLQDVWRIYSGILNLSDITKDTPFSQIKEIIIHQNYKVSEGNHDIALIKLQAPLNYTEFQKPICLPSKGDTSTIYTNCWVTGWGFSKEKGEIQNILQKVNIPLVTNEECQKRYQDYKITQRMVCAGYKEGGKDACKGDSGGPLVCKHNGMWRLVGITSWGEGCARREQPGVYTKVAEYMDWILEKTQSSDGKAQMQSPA
Sequence of human activated kallikrein enzyme (plasma kallikrein) (P03952 20-390 partner): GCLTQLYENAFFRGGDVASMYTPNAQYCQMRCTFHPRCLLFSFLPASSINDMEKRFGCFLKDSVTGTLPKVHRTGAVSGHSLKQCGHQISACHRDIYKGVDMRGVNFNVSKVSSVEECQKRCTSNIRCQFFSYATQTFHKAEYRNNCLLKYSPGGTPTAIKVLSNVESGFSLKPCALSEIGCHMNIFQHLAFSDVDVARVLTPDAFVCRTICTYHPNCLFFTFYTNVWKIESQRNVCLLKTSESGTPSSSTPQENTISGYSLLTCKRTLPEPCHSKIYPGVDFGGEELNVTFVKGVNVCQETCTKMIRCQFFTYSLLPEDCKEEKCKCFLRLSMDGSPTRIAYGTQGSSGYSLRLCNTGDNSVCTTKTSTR

SMILES	pEC50
O=C(NCc1ncn2ccc(Cl)c(F)c12)c1cn(Cc2cn3cc(C4CC4)cc(C4(F)COC4)c3n2)nn1 [Example I-167, N-((7-chloro-8-fluoroimidazo[1,5-a]pyridin-1-yl)methyl)-1-((6-cyclopropyl-8-(3-fluorooxetan-3-yl)imidazo[1,2-a]pyridin-2-yl)methyl)-1H-1,2,3-triazole-4-carboxamide]	> 9.00
CCOC(=O)C(C)(C)Cc1cc(C2CC2)cn2cc(Cn3cc(C(=O)NCc4ncn5ccc(Cl)cc45)nn3)nc12 [Example I-168, ethyl 3-(2-((4-(((7-chloroimidazo[1,5-a]pyridin-1-yl)methyl)carbamoyl)-1H-1,2,3-triazol-1-yl)methyl)-6-cyclopropylimidazo[1,2-a]pyridin-8-yl)-2,2-dimethylpropanoate]	> 9.00
O=C(NCc1ncn2ccc(Cl)c(F)c12)c1cn(Cc2cn3cc(C4CC4)cc(C4COC4)c3n2)nn1 [Example I-169, N-((7-chloro-8-fluoroimidazo[1,5-a]pyridin-1-yl)methyl)-1-((6-cyclopropyl-8-(oxetan-3-yl)imidazo[1,2-a]pyridin-2-yl)methyl)-1H-1,2,3-triazole-4-carboxamide]	> 9.00
CC(C)(Cc1cc(C2CC2)cn2cc(Cn3cc(C(=O)NCc4ncn5ccc(Cl)cc45)nn3)nc12)C(=O)O [Example I-170, 3-(2-((4-(((7-chloroimidazo[1,5-a]pyridin-1-yl)methyl)carbamoyl)-1H-1,2,3-triazol-1-yl)methyl)-6-cyclopropylimidazo[1,2-a]pyridin-8-yl)-2,2-dimethylpropanoic acid]	> 9.00
O=C(NCc1ncn2ccc(Cl)c(F)c12)c1cn(Cc2cn3cc(C4CC4)cc(F)c3n2)nn1 [Example I-171, N-((7-chloro-8-fluoroimidazo[1,5-a]pyridin-1-yl)methyl)-1-((6-cyclopropyl-8-fluoroimidazo[1,2-a]pyridin-2-yl)methyl)-1H-1,2,3-triazole-4-carboxamide]	> 9.00
O=C(NCc1ncn2ccc(Cl)c(F)c12)c1cn(Cc2cn3cc(C4CC4)cc(N4CCOCC4)c3n2)nn1 [Example I-173, N-((7-chloro-8-fluoroimidazo[1,5-a]pyridin-1-yl)methyl)-1-((6-cyclopropyl-8-morpholinoimidazo[1,2-a]pyridin-2-yl)methyl)-1H-1,2,3-triazole-4-carboxamide]	> 9.00
O=C(NCc1ncn2ccc(Cl)c(F)c12)c1cn(Cc2cn3cc(C4CC4)cc(-c4nn[nH]n4)c3n2)nn1 [Example I-174, N-((7-chloro-8-fluoroimidazo[1,5-a]pyridin-1-yl)methyl)-1-((6-cyclopropyl-8-(2H-tetrazol-5-yl)imidazo[1,2-a]pyridin-2-yl)methyl)-1H-1,2,3-triazole-4-carboxamide]	> 9.00
O=C(NCc1ncn2ccc(Cl)c(F)c12)c1cn(Cc2cc3cc(C4CC4)ccn3n2)nn1 [Example I-175, N-((7-chloro-8-fluoroimidazo[1,5-a]pyridin-1-yl)methyl)-1-((5-cyclopropylpyrazolo[1,5-a]pyridin-2-yl)methyl)-1H-1,2,3-triazole-4-carboxamide]	> 9.00
O=C(NCc1ncn2ccc(Cl)cc12)c1cc(Cc2cn3cc(C4CC4)ccc3n2)on1 [Example I-176, N-((7-chloroimidazo[1,5-a]pyridin-1-yl)methyl)-5-((6-cyclopropylimidazo[1,2-a]pyridin-2-yl)methyl)isoxazole-3-carboxamide]	8.00 to 9.00
O=C(NCc1ncn2ccc(Cl)cc12)c1noc(Cc2cn3cc(C4CC4)ccc3n2)n1 [Example I-177, N-((7-chloroimidazo[1,5-a]pyridin-1-yl)methyl)-5-((6-cyclopropylimidazo[1,2-a]pyridin-2-yl)methyl)-1,2,4-oxadiazole-3-carboxamide]	8.00 to 9.00
O=C(NCc1ncn2ccc(Cl)c(F)c12)c1cn(Cc2nc3cc(C4CC4)ccn3n2)nn1 [Example I-178, N-((7-chloro-8-fluoroimidazo[1,5-a]pyridin-1-yl)methyl)-1-((7-cyclopropyl-[1,2,4]triazolo[1,5-a]pyridin-2-yl)methyl)-1H-1,2,3-triazole-4-carboxamide]	7.00 to 8.00
O=C(NCc1ncn2ccc(Cl)c(F)c12)c1cn(Cc2cn3cc(C4CC4)cc(-n4cnnn4)c3n2)nn1 [Example I-179, N-((7-chloro-8-fluoroimidazo[1,5-a]pyridin-1-yl)methyl)-1-((6-cyclopropyl-8-(1H-tetrazol-1-yl)imidazo[1,2-a]pyridin-2-yl)methyl)-1H-1,2,3-triazole-4-carboxamide]	> 9.00
O=C(NCc1ncn2ccc(Cl)c(F)c12)c1cn(Cc2cn3cc(C4CC4)cc(-n4cnnc4)c3n2)nn1 [Example I-180, N-((7-chloro-8-fluoroimidazo[1,5-a]pyridin-1-yl)methyl)-1-((6-cyclopropyl-8-(4H-1,2,4-triazol-4-yl)imidazo[1,2-a]pyridin-2-yl)methyl)-1H-1,2,3-triazole-4-carboxamide]	> 9.00
O=C(NCc1ncn2ccc(Cl)c(F)c12)c1cn(Cc2cn3cc(C4CC4)cc(CO)c3n2)nn1 [Example I-181, N-((7-chloro-8-fluoroimidazo[1,5-a]pyridin-1-yl)methyl)-1-((6-cyclopropyl-8-(hydroxymethyl)imidazo[1,2-a]pyridin-2-yl)methyl)-1H-1,2,3-triazole-4-carboxamide]	> 9.00
O=Cc1cc(C2CC2)cn2cc(Cn3cc(C(=O)NCc4ncn5ccc(Cl)c(F)c45)nn3)nc12 [Example I-182, N-((7-chloro-8-fluoroimidazo[1,5-a]pyridin-1-yl)methyl)-1-((6-cyclopropyl-8-formylimidazo[1,2-a]pyridin-2-yl)methyl)-1H-1,2,3-triazole-4-carboxamide]	> 9.00
NC(=O)CCc1cc(C2CC2)cn2cc(Cn3cc(C(=O)NCc4ncn5ccc(Cl)cc45)nn3)nc12 [Example I-183, 1-((8-(3-amino-3-oxopropyl)-6-cyclopropylimidazo[1,2-a]pyridin-2-yl)methyl)-N-((7-chloroimidazo[1,5-a]pyridin-1-yl)methyl)-1H-1,2,3-triazole-4-carboxamide]	> 9.00
N#CCCc1cc(C2CC2)cn2cc(Cn3cc(C(=O)NCc4ncn5ccc(Cl)cc45)nn3)nc12 [Example I-184, N-((7-chloroimidazo[1,5-a]pyridin-1-yl)methyl)-1-((8-(2-cyanoethyl)-6-cyclopropylimidazo[1,2-a]pyridin-2-yl)methyl)-1H-1,2,3-triazole-4-carboxamide]	> 9.00
O=C(NCc1ncn2ccc(Cl)c(F)c12)c1cn(Cc2cn3cc(C4CC4)cc(C(F)(F)F)c3n2)nn1 [Example I-185, N-((7-chloro-8-fluoroimidazo[1,5-a]pyridin-1-yl)methyl)-1-((6-cyclopropyl-8-(trifluoromethyl)imidazo[1,2-a]pyridin-2-yl)methyl)-1H-1,2,3-triazole-4-carboxamide]	> 9.00
O=C(NCc1ncn2ccc(Cl)c(F)c12)c1cn(Cc2cn3cc(C4CC4)cc(CC4COC4)c3n2)nn1 [Example I-186, N-((7-chloro-8-fluoroimidazo[1,5-a]pyridin-1-yl)methyl)-1-((6-cyclopropyl-8-(oxetan-3-ylmethyl)imidazo[1,2-a]pyridin-2-yl)methyl)-1H-1,2,3-triazole-4-carboxamide]	> 9.00
O=C(NCc1ncn2ccc(Cl)c(F)c12)c1cn(Cc2cn3cc(Cl)cc(C4COC4)c3n2)nn1 [Example I-187, 1-((6-chloro-8-(oxetan-3-yl)imidazo[1,2-a]pyridin-2-yl)methyl)-N-((7-chloro-8-fluoroimidazo[1,5-a]pyridin-1-yl)methyl)-1H-1,2,3-triazole-4-carboxamide]	> 9.00
O=C(NCc1ncn2ccc(Cl)c(F)c12)c1cn(Cc2cn3cc(Cl)c(Cl)cc3n2)nn1 [Example I-188, N-((7-chloro-8-fluoroimidazo[1,5-a]pyridin-1-yl)methyl)-1-((6,7-dichloroimidazo[1,2-a]pyridin-2-yl)methyl)-1H-1,2,3-triazole-4-carboxamide]	8.00 to 9.00
O=C(NCc1ncn2ccc(Cl)c(F)c12)c1cn(Cc2cc3cc(C4CC4)cnc3s2)nn1 [Example I-189, N-((7-chloro-8-fluoroimidazo[1,5-a]pyridin-1-yl)methyl)-1-((5-cyclopropylthieno[2,3-b]pyridin-2-yl)methyl)-1H-1,2,3-triazole-4-carboxamide]	> 9.00
O=C(NCc1ncn2ccc(Cl)cc12)c1nc(Cc2cn3cc(C4CC4)ccc3n2)no1 [Example I-190, N-((7-chloroimidazo[1,5-a]pyridin-1-yl)methyl)-3-((6-cyclopropylimidazo[1,2-a]pyridin-2-yl)methyl)-1,2,4-oxadiazole-5-carboxamide]	> 9.00
O=C(NCc1ncn2ccc(Cl)c(F)c12)c1cn(Cc2cc3cc(C4CC4)ccc3o2)nn1 [Example I-191, N-((7-chloro-8-fluoroimidazo[1,5-a]pyridin-1-yl)methyl)-1-((5-cyclopropylbenzofuran-2-yl)methyl)-1H-1,2,3-triazole-4-carboxamide]	8.00 to 9.00
O=C(NCc1ncn2ccc(Cl)c(F)c12)c1cn(Cc2cn3cc(C4CC4)cc(C(F)F)c3n2)nn1 [Example I-192, N-((7-chloro-8-fluoroimidazo[1,5-a]pyridin-1-yl)methyl)-1-((6-cyclopropyl-8-(difluoromethyl)imidazo[1,2-a]pyridin-2-yl)methyl)-1H-1,2,3-triazole-4-carboxamide]	> 9.00
O=C(O)c1cnn(Cc2cc(C3CC3)cn3cc(Cn4cc(C(=O)NCc5ncn6ccc(Cl)c(F)c56)nn4)nc23)c1 [Example I-193, 1-((2-((4-(((7-chloro-8-fluoroimidazo[1,5-a]pyridin-1-yl)methyl)carbamoyl)-1H-1,2,3-triazol-1-yl)methyl)-6-cyclopropylimidazo[1,2-a]pyridin-8-yl)methyl)-1H-pyrazole-4-carboxylic acid]	> 9.00
